Assay results reported in the NIST ThermoML archive (doi:10.1021/je049973v).
± gives the expanded uncertainty stated by the source.

Conditions: Liquid; for speed of sound: Pulse-echo method; for mass density: Vibrating tube method

CCCCCCCCCCCCCCCCCCc1ccccc1 [octadecylbenzene]
Conditions	mass density [kg/m3]	speed of sound [m/s]
313.15 K, 100 kPa	840.55 ± 1.2	1392.9 ± 3.5
313.15 K, 5000 kPa	843.37 ± 1.2	–
313.15 K, 10000 kPa	846.27 ± 1.2	1439.6 ± 3.6
313.15 K, 15000 kPa	849.15 ± 1.2	–
313.15 K, 20000 kPa	–	1484.1 ± 3.6
313.15 K, 25000 kPa	854.46 ± 1.2	–
313.15 K, 30000 kPa	856.89 ± 1.2	1525.8 ± 3.7
313.15 K, 35000 kPa	859.36 ± 1.2	–
313.15 K, 40000 kPa	861.48 ± 1.3	1564.8 ± 3.8
313.15 K, 45000 kPa	864.12 ± 1.3	–
313.15 K, 50000 kPa	866.37 ± 1.3	1602.4 ± 3.8
313.15 K, 55000 kPa	868.59 ± 1.3	–
313.15 K, 60000 kPa	870.16 ± 1.3	1638.1 ± 3.9
313.15 K, 70000 kPa	–	1672.1 ± 4
313.15 K, 80000 kPa	–	1704.7 ± 4
323.15 K, 100 kPa	833.94 ± 1.2	1357.8 ± 3.4
323.15 K, 5000 kPa	836.91 ± 1.2	–
323.15 K, 10000 kPa	840.02 ± 1.2	1406.8 ± 3.5
323.15 K, 15000 kPa	842.88 ± 1.2	–
323.15 K, 20000 kPa	–	1452.4 ± 3.6
323.15 K, 25000 kPa	848.32 ± 1.2	–
323.15 K, 30000 kPa	850.96 ± 1.2	1495.5 ± 3.7
323.15 K, 35000 kPa	853.46 ± 1.2	–
323.15 K, 40000 kPa	856 ± 1.3	1535.6 ± 3.7
323.15 K, 45000 kPa	858.41 ± 1.3	–
323.15 K, 50000 kPa	860.91 ± 1.3	1574 ± 3.8
323.15 K, 55000 kPa	863.12 ± 1.3	–
323.15 K, 60000 kPa	865.36 ± 1.3	1610.3 ± 3.9
323.15 K, 70000 kPa	–	1645.1 ± 3.9
323.15 K, 80000 kPa	–	1678.7 ± 4
323.15 K, 90000 kPa	–	1710.4 ± 4
323.15 K, 100000 kPa	–	1741.3 ± 4.1
323.15 K, 110000 kPa	–	1771.2 ± 4.1
323.15 K, 120000 kPa	–	1799.2 ± 4.2
333.15 K, 100 kPa	827.32 ± 1.2	1325.5 ± 3.4
333.15 K, 5000 kPa	830.4 ± 1.2	–
333.15 K, 10000 kPa	833.56 ± 1.2	1374.8 ± 3.5
333.15 K, 15000 kPa	836.59 ± 1.2	–
333.15 K, 20000 kPa	–	1422.6 ± 3.5
333.15 K, 25000 kPa	842.3 ± 1.2	–
333.15 K, 30000 kPa	845.04 ± 1.2	1466.1 ± 3.6
333.15 K, 35000 kPa	847.71 ± 1.2	–
333.15 K, 40000 kPa	850.3 ± 1.2	1507.5 ± 3.7
333.15 K, 45000 kPa	852.76 ± 1.3	–
333.15 K, 50000 kPa	855.26 ± 1.3	1546.7 ± 3.7
333.15 K, 55000 kPa	857.46 ± 1.3	–
333.15 K, 60000 kPa	859.86 ± 1.3	1583.5 ± 3.8
333.15 K, 70000 kPa	–	1619.1 ± 3.9
333.15 K, 80000 kPa	–	1652.8 ± 3.9
333.15 K, 90000 kPa	–	1685.7 ± 4
333.15 K, 100000 kPa	–	1717 ± 4
333.15 K, 110000 kPa	–	1747.3 ± 4.1
333.15 K, 120000 kPa	–	1775.7 ± 4.1
333.15 K, 130000 kPa	–	1803.9 ± 4.2
333.15 K, 140000 kPa	–	1830.9 ± 4.2
333.15 K, 150000 kPa	–	1857.5 ± 4.3
343.15 K, 100 kPa	820.78 ± 1.2	1292.7 ± 3.3
343.15 K, 5000 kPa	824.1 ± 1.2	–
343.15 K, 10000 kPa	827.33 ± 1.2	1344.1 ± 3.4
343.15 K, 15000 kPa	830.48 ± 1.2	–
343.15 K, 20000 kPa	–	1392.8 ± 3.5
343.15 K, 25000 kPa	836.54 ± 1.2	–
343.15 K, 30000 kPa	839.35 ± 1.2	1437.7 ± 3.6
343.15 K, 35000 kPa	841.97 ± 1.2	–
343.15 K, 40000 kPa	844.62 ± 1.2	1480.2 ± 3.6
343.15 K, 45000 kPa	847.32 ± 1.2	–
343.15 K, 50000 kPa	849.82 ± 1.3	1519.9 ± 3.7
343.15 K, 55000 kPa	852.25 ± 1.3	–
343.15 K, 60000 kPa	854.6 ± 1.3	1558.1 ± 3.8
343.15 K, 70000 kPa	–	1594.2 ± 3.8
343.15 K, 80000 kPa	–	1628.6 ± 3.9
343.15 K, 90000 kPa	–	1661.5 ± 3.9
343.15 K, 100000 kPa	–	1693.1 ± 4
343.15 K, 110000 kPa	–	1723.6 ± 4.1
343.15 K, 120000 kPa	–	1753.5 ± 4.1
343.15 K, 130000 kPa	–	1781.9 ± 4.2
343.15 K, 140000 kPa	–	1809.4 ± 4.2
343.15 K, 150000 kPa	–	1836.3 ± 4.3
353.15 K, 100 kPa	814.1 ± 1.2	1260.7 ± 3.3
353.15 K, 5000 kPa	817.72 ± 1.2	–
353.15 K, 10000 kPa	821.14 ± 1.2	1313.4 ± 3.4
353.15 K, 15000 kPa	824.47 ± 1.2	–
353.15 K, 20000 kPa	–	1364.1 ± 3.4
353.15 K, 25000 kPa	830.64 ± 1.2	–
353.15 K, 30000 kPa	833.58 ± 1.2	1410 ± 3.5
353.15 K, 35000 kPa	836.52 ± 1.2	–
353.15 K, 40000 kPa	839.12 ± 1.2	1454 ± 3.6
353.15 K, 45000 kPa	841.72 ± 1.2	–
353.15 K, 50000 kPa	844.35 ± 1.3	1494.4 ± 3.7
353.15 K, 55000 kPa	846.91 ± 1.3	–
353.15 K, 60000 kPa	849.39 ± 1.3	1532.6 ± 3.7
353.15 K, 70000 kPa	–	1569.2 ± 3.8
353.15 K, 80000 kPa	–	1604.3 ± 3.8
353.15 K, 90000 kPa	–	1638.2 ± 3.9
353.15 K, 100000 kPa	–	1670.3 ± 4
353.15 K, 110000 kPa	–	1701.4 ± 4
353.15 K, 120000 kPa	–	1731.3 ± 4.1
353.15 K, 130000 kPa	–	1759.9 ± 4.1
353.15 K, 140000 kPa	–	1788.8 ± 4.2
353.15 K, 150000 kPa	–	1815.1 ± 4.2
363.15 K, 100 kPa	807.7 ± 1.2	1229.5 ± 3.2
363.15 K, 5000 kPa	811.19 ± 1.2	–
363.15 K, 10000 kPa	814.87 ± 1.2	1284.8 ± 3.3
363.15 K, 15000 kPa	818.14 ± 1.2	–
363.15 K, 20000 kPa	–	1334.9 ± 3.4
363.15 K, 25000 kPa	824.7 ± 1.2	–
363.15 K, 30000 kPa	827.83 ± 1.2	1382.7 ± 3.5
363.15 K, 35000 kPa	830.62 ± 1.2	–
363.15 K, 40000 kPa	833.38 ± 1.2	1427.1 ± 3.5
363.15 K, 45000 kPa	836.17 ± 1.2	–
363.15 K, 50000 kPa	838.78 ± 1.2	1469.1 ± 3.6
363.15 K, 55000 kPa	841.42 ± 1.3	–
363.15 K, 60000 kPa	843.92 ± 1.3	1508.3 ± 3.7
363.15 K, 70000 kPa	–	1545.7 ± 3.7
363.15 K, 80000 kPa	–	1581.7 ± 3.8
363.15 K, 90000 kPa	–	1615.7 ± 3.9
363.15 K, 100000 kPa	–	1648.3 ± 3.9
363.15 K, 110000 kPa	–	1679.8 ± 4
363.15 K, 120000 kPa	–	1710 ± 4
363.15 K, 130000 kPa	–	1739.2 ± 4.1
363.15 K, 140000 kPa	–	1767.5 ± 4.1
363.15 K, 150000 kPa	–	1795.5 ± 4.2
373.15 K, 100 kPa	800.89 ± 1.1	1198.7 ± 3.2
373.15 K, 5000 kPa	804.86 ± 1.2	–
373.15 K, 10000 kPa	808.59 ± 1.2	1255.2 ± 3.3
373.15 K, 15000 kPa	812.16 ± 1.2	–
373.15 K, 20000 kPa	–	1308.3 ± 3.3
373.15 K, 25000 kPa	818.84 ± 1.2	–
373.15 K, 30000 kPa	821.97 ± 1.2	1356.6 ± 3.4
373.15 K, 35000 kPa	825.09 ± 1.2	–
373.15 K, 40000 kPa	828 ± 1.2	1401.7 ± 3.5
373.15 K, 45000 kPa	830.8 ± 1.2	–
373.15 K, 50000 kPa	833.6 ± 1.2	1444.5 ± 3.6
373.15 K, 55000 kPa	836.29 ± 1.3	–
373.15 K, 60000 kPa	838.88 ± 1.3	1484.7 ± 3.6
373.15 K, 70000 kPa	–	1522 ± 3.7
373.15 K, 80000 kPa	–	1558.6 ± 3.8
373.15 K, 90000 kPa	–	1592.9 ± 3.8
373.15 K, 100000 kPa	–	1626.3 ± 3.9
373.15 K, 110000 kPa	–	1657.9 ± 3.9
373.15 K, 120000 kPa	–	1688.5 ± 4
373.15 K, 130000 kPa	–	1718.7 ± 4
373.15 K, 140000 kPa	–	1746.6 ± 4.1
373.15 K, 150000 kPa	–	1774.6 ± 4.1
